{
  "source": "paper PMC10700673",
  "about": "“A Smart Intracellular Self‐Assembling Bioorthogonal Raman Active Nanoprobe for Targeted Tumor Imaging” (Advanced Science, 2023)",
  "key": {"[1]": {"experiment": "self-assembly into nanoparticles, TEM and DLS", "type": "physicochemical", "conditions": "probe solution without legumain enzyme", "protocol": "To accurately evaluate the efficiency of the R6‐AAN‐alkyne‐nitrile nanoprobe, time‐dependent Raman measurements were performed (Figure 2g), where the ratio of alkyne/nitrile peak intensity was used as an indicator of the reaction progress. We found as the reaction progressed the alkyne/nitrile peak intensity increased from 0.22±0.01 to 4.4±0.12 and plateaued at a final value of 4.6±0.12 indicating almost complete conversion of nanoSABER to alkyne‐dimer within 3 h. […] To further get insight into the structural arrangements of the self‐assembled dimers, transmission electron microscopy (TEM) was performed. […]\nAll materials were sourced from Sigma, Chem Impex, or Thermo Fisher and used as received, with purification performed only when explicitly indicated. […] The mass of synthesized peptides was determined using Bruker AutoFLex III Maldi‐TOF or Voyager DE‐STR MALDI‐TOF mass spectrometers. ^1H NMR spectra were obtained on a 400 MHz Bruker Avance at 27 °C in dimethylsulfoxide (DMSO)‐d6. Ultraviolet–visible (UV–Vis) absorption spectra were recorded with a Perkin Elmer Lambda 950 UV–Vis spectrophotometer. […] High‐resolution fluorescence imaging was performed using a Leica SP8 confocal microscope equipped with a 63× oil‐immersion objective. The size distribution of nanoparticles was determined using dynamic light scattering (DLS) (Zetasizer Nano, Malvern Instruments) at room temperature (RT). […]"}, "[2]": {"experiment": "in vivo toxicity and biocompatibility", "set-up": "species or system healthy female rag2 mice", "conditions": "7 days after IV 100 µL, 0.0125 mmol kg-1, n = 3", "source_text": "The in vivo toxicity and biocompatibility of nanoSABER were investigated following IV injection of nanoSABER in mice (Figure 7a). […] In addition, we examined various common indicators related to renal function (Figure 7c), liver function (Figure 7d), and bone marrow function (Figure 7e). […] These findings further confirm the biocompatibility and safety of the nanoSABER for in vivo targeted tumor imaging.\nFigure 7 a) Schematic illustration of in vivo toxicity and biocompatibility assessment 7 days after IV injection of nanoSABER. b) Histology of major organs excised and stained with H&E for PBS (control) or nanoSABER injection. c) Kidney function test for blood plasma and urine. d) Liver function test for the enzymes aspartate transaminase (AST), alkaline phosphatase (ALP), and alanine transaminase (ALT) in blood plasma. e) Bone marrow function test for red blood cells (RBCs), white blood cells (WBCs), and platelets in blood plasma. All data are presented as mean ± standard deviation, n = 3. p‐Values of <0.001 (***), 0.001 to 0.01 (**), and 0.01 to 0.05 (*) were considered significant.\nAll animal experiments were carried out under an approved IACUC protocol. The biocompatibility of nanoSABER was evaluated in vivo, using healthy female rag2 mice that were divided into two groups (n = 3 each). […]"}},
  "data": [
    {"substance": "Ac‐Arg‐Arg‐Arg‐Arg‐Arg‐Arg‐Ala‐Ala‐Asn‐Cys(StBu)‐Pra‐Lys‐CBT [nanoSABER]", "values": [
      {"measurement": "nanoparticles in TEM before addition of legumain", "setting": "[1]", "result": "did not show any detectable nanoparticles"},
      {"measurement": "renal, liver and bone marrow function parameters", "setting": "[2]; compared with PBS group", "result": "fell within a normal reference range"},
      {"measurement": "H&E histology of major organs", "setting": "[2]; heart, liver, lung, kidney, spleen", "result": "no signs of histopathological damage or tissue inflammation"}
    ]}
  ]
}
